# Legend:
# DPPI [1] = target: T1, DPPI (Homo sapiens, UniProt P53634); test: Cell based DPPI inhibition assay 2; design: endogenous in cells; host or cells: U937 cells; conditions: neutrophil elastase activity in U937 cells grown 48 hours with inhibitor
# Procedure: Cell Based DPPI Inhibition Assay 2
# Using the cell based assay described below, the biological activity of the compounds of the invention or other DPPI inhibitors may be determined.
# Neutrophil elastase enzymatic activities in U937 cells grown in the presence of DPPI inhibitors were measured by methods modified from Méthot N; Rubin J; Guay D; Beaulieu C; Ethier D; Reddy T J; Riendeau D and Percival M D (2007) J Biol Chem, 282, 20836-20846.
# U937 cells were propagated in culture media (RPMI 1640, supplemented with 10% FBS, 10 mM Hepes, 1 mM sodium pyrovate, 100 units/ml of each of penicillin and streptomycin). Cells were seeded in 12-well plates at ≈0.2×10^6 cells/ml in volumes of 1.5 ml per well in the presence of no or increasing concentrations of DPPI inhibitor. 12 points in duplicate in the range of 0.01 nM to 10 μM inhibitor were tested. […]
# The activity of neutrophil elastase was determined by measuring the enzymatic release of chromogenic p-nitroaniline from the substrate MetOSuc-Ala-Ala-Pro-Val-pNA, which leads to an increase in absorbance at 405 nm. Assays were carried out in 96-well plates in a final volume of 200 μL at 37° C., and absorbance was measured 8 times during 21 minutes using a plate reader. IC50 was determined using a 4-parameter logistic equation in a non-linear curve fitting routine.
# [2] = Test for metabolic stability (human liver microsomes); format: in vitro ADME; conditions: pH 7.4; human liver microsomes 1.0 mg/mL, 1 mM NADPH, test compound 5 μM, 37° C.
# Procedure: Test for Metabolic Stability
# The test for metabolic stability was performed by Absorption System, Exton, Pa. 19341, USA.
# The test compound (DPPI inhibitor) was dissolved in 100% DMSO at a concentration of 10 mM. The reaction mixture, consisted of Mouse or Human Liver Microsomes (1.0 mg/mL), 1 mM NADPH, 100 mM Potassium Phosphate, pH 7.4, 10 mM Magnesium Chloride and test compound at a concentration of 5 μM.
# An aliquot of the reaction mixture (without cofactors) was incubated in a shaking water bath at 37° C. for 3 minutes. Another aliquot of the reaction mixture was prepared as the negative control. The test compound was added into both the reaction mixture and the negative control at a final concentration of 5 μM.
# The reaction was initiated by the addition of NADPH to 1 mM (not into the negative controls) and then incubated in a shaking water bath at 37° C. Aliquots (100 μL) were withdrawn at 0, 10, 20, 30, and 60 minutes or at 0, 15, 30 and 60 minutes and combined with 900 μL of ice-cold 50/50 acetonitrile/dH2O to terminate the reaction. A control (testosterone) was run simultaneously with the test compound in a separate reaction. […] The elimination half-lives associated with the disappearance of the test and control compounds were determined to compare their relative metabolic stability.
# DPPI [3] = target: T1, DPPI; test: Human DPPI inhibition assay 2; format: biochemical; design: purchased UNIZYME Laboratories A/S; conditions: substrate Gly-Phe-paranitroanilide 750 μM, pH 4.5, 37° C.
# Procedure: Human DPPI Inhibition Assay 2
# Using this assay, the IC50 value of the compound of the invention may be determined using Gly-Phe-paranitroanilide as a DPPI specific substrate.
# Assay buffer: 20 mM citric acid (2.1 g citric acid), 150 mM NaCl (4.4 g NaCl) and 2 mM EDTA (370 mg EDTA) was dissolved in 500 mL H2O, and pH was adjusted to 4.5 with HCl.
# Substrate: Gly-Phe-paranitroanilide (Sigma Aldrich; Cat. No G0142) was used as the substrate for determination of IC50 values. Km was 2.2 mM. The substrate was solubilized in dimethylformamid to give a 0.2-0.5 M stock solution, which was then further diluted with stirring in assay buffer to a final concentration of 1 mM.
# DPPI: Human DPPI (obtained from UNIZYME Laboratories A/S, DK-2970 Hørsholm, Denmark) was stored at −20° C. in a buffer containing 2.5 mM Na-phosphate, 150 mM NaCl, 2 mM cysteamine, 50% glycerol, pH 7.0 at a concentration of 2.2 mg/mL (≈12 μM). This stock solution was diluted 800-3200 times in assay buffer to a concentration of about 4-15 nM.
# Assay conditions: The assay was performed in 96-well plates. […] The absorption was measured at 405 nm at 37° C. for every 90 seconds for 12 minutes or every 20 seconds for 4 minutes. […] IC50 was determined using a 4-parameter logistic equation in a non-linear curve fitting routine.
# T1 sequence (P53634 231-394 limits assumed): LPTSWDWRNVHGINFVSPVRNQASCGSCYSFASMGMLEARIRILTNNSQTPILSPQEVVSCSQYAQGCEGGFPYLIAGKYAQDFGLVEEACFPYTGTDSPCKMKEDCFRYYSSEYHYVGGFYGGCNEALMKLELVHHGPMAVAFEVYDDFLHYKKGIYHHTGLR
# T1 sequence (P53634 25-134 limits assumed): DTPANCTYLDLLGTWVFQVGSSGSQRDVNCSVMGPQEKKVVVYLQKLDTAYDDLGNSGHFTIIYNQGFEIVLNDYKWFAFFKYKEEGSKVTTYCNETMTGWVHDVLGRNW
# T1 sequence (P53634 395-463 limits assumed): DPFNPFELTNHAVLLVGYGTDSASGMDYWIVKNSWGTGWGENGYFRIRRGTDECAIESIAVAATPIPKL
structure (smiles),measurement,setting,value
"CN1CCN(Cc2ccc(-c3ccc(C[C@@H](C#N)NC(=O)C4(N)CCOCC4)c(F)c3)cc2)CC1 [PZ1101, (S)-4-amino-N-(1-cyano-2-(3-fluoro-4′-((4-methylpiperazin-1-yl)methyl)-[1,1′-biphenyl]-4-yl)ethyl)tetrahydro-2H-pyran-4-carboxamide]",IC50,DPPI [1],~2.5 nM
same,half-life at 5 μM,[2],> 2 h
same,IC50,DPPI [3],~6 nM
